Assay results reported in PMC8997399, “High-Throughput Screening to Identify Inhibitors of Plasmodium falciparum Importin α” (Cells, 2022).
Where “and” joins values, the source holds several entries; their conditions need not be identical. Equal entries are not always repeated. Where two headings read alike, the source gives them in different places.

Experiments:
PfIMPα = PfIMPα (Plasmodium falciparum, UniProt Q8IAW0); format: binding
[1] = test system: T. gondii RH strain expressing the luciferase reporter (RH-Fluc); experiment: T. gondii tachyzoite growth inhibition assay (RH-Fluc luciferase); format: cell-based, Toxoplasma gondii; settings: for T. gondii parasite killing: at 2 µM or less (Figure 7); for IC50: read-out: IC50 T. gondii
Source text: T. gondii RH strain expressing the luciferase reporter (RH-Fluc) was derived to assess the effect of the inhibitors on growth. Briefly, plasmid pCTG-EGFP [42] was modified by replacing the coding sequence of EGFP with that of the firefly luciferase reporter, using restriction enzymes BglII and PstI (Thermo Fisher Scientific, Waltham, MA, USA). The resultant plasmid, pCTG-Fluc, expressing firefly luciferase constitutively under the control of the T. gondii TubulinA promoter, was electroporated into the T. gondii RH strain [43, 44] using a Bio-Rad GenePulser Xcell system (1500 V, 50 Ω and 25 µF) along with restriction enzyme NotI to initiate RE-Mediated Integration (REMI) of the linearized plasmid into the genome. The resultant stable T. gondii line expressing the luciferase reporter was selected for resistance to 20 µM chloramphenicol (encoded by the plasmid pCTG), and dilution cloning was performed to ultimately identify the clone (RH-Fluc) with the highest luciferase activity (c. 4 × 10^7 RLU from 10^7 parasites) used for growth assays. T. gondii tachyzoites were maintained and cultured at 37 °C in 5% CO2 in a humidified incubator in primary human foreskin fibroblasts (HFF, ATCC); HFF cells were maintained in Dulbecco’s modified Eagle medium (DMEM) (Gibco^TM, Waltham, MA, USA) supplemented with 3.7 g/L sodium bicarbonate and 2.38 g/L HEPES, 10% Cosmic Calf serum (Hyclone^TM, Logan, UT, USA) and 20 mg/L gentamicin [47, 48].
Growth inhibition was assessed by luminescence measurements as described. Briefly, 100 μL of culture medium with or without inhibitors was added to confluent monolayers of HFF cells grown in 96-well treated culture plates (Eppendorf, Hamburg, Germany), followed by 100 µL of DMEM containing 5000 parasites. After 48 h, 150 µL of the culture media was discarded from each well without aspirating any parasites, and 10 µL lysis buffer was added to lyse the parasites, followed by 50 μL of 2× luciferase assay reagent (Promega, Madison, WI, USA). Luminescence was measured directly for 10 s using a Varioskan™ LUX multimode microplate reader (Thermo Fisher Scientific, Waltham, MA, USA).

HFF cells = experiment: MTT assay for host cell cytotoxicity; format: cell-based, human
Experimental: The MTT assay was used to measure the cytotoxicity of the small molecules against the HFF cells as described. Briefly, freshly confluent HFF cells in a 96-well culture plate were treated with increasing concentrations of compounds for 48 h, prior to the MTT assay.

MmIMPα/β heterodimer = biological target: T1, MmIMPα/β heterodimer (Mus musculus, UniProt P52293); experiment: AlphaScreen binding assay, MmIMPα/β:T-ag-NLS-GFP interaction; settings: compounds at 10 μM, MmIMPα/β (5 nM):T-ag-NLS-GFP (30 nM), relative to 1% DMSO control
T1 construct: GST; made in house
Experimental: PfIMPα, TgIMPα, Mus musculus IMPα (MmIMPα), ΔIBBMmIMPα, and β1 (MmIMPβ) GST fusion proteins were expressed and purified essentially as previously. His-tagged TGS1-NLS-GFP, PfIMPα and TgIMPα proteins were purified using Ni^2+-affinity chromatography as described. His-tagged SV40 T-ag-NLS-GFP was purified as previously. Biotinylation of GST-tagged proteins was carried out using the Sulfo-NHS-Biotin reagent (Pierce, Rockford, IL, USA) as described previously. AlphaScreen binding assay was performed as described previously.
Plates were read for an Alphascreen signal on an Envision plate reader (PerkinElmer, Waltham, MA, USA), with signals from the negative control wells (no bait control) on each plate subtracted.

T. gondii tachyzoites = settings: cited from earlier work
P. falciparum = settings: cited from earlier work
[2] = pooled, mean ± SEM (n = 3), read-out: IC50 PfIMPα:TGS1-NLS-GFP
[3] = 10 μM, 48 h, HFF cells infected with RH-Fluc (Figure 5B)
[4] = parasites in culture, 48 h, pooled, mean ± SD (n = 3) (Table 3)
[5] = single typical experiment (Figure 7), 48 h

PfIMPα, sequence (Q8IAW0 entry or part of it): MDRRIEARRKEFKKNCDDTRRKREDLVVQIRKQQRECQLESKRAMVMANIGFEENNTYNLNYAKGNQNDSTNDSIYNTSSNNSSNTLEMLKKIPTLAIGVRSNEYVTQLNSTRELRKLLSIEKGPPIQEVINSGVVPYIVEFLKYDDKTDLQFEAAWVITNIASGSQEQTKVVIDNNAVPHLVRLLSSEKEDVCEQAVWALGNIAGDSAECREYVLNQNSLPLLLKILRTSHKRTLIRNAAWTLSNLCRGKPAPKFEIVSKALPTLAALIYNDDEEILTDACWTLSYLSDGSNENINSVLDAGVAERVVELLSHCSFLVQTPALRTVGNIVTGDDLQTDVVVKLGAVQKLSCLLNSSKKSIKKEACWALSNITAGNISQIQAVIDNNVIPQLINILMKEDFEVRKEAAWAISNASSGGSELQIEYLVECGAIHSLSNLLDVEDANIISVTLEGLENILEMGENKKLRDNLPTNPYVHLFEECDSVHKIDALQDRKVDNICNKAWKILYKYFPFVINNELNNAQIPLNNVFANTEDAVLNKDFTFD

Compound	IC50 (PfIMPα; [2])	fold lower IC50 for PfIMPα compared to both TgIMPα and MmIMPα (PfIMPα; range over both comparisons)	reduction in luciferase activity, indicative of T. gondii growth inhibition [1, 3] [%]	T. gondii parasite killing [1] [%]	IC50 [1, 4] [nM]	IC50 [1, 5] [nM]	CC50 (HFF cells) [nM]	inhibition at 10 µM ([1]; Toxoplasma gondii, 10 μM, 48 h, HFF cells infected with RH-Fluc (Figure 5B), read-out: reduction in luciferase activity, indicative of T. gondii growth inhibition) [%]	IC50 ([1]; Toxoplasma gondii, parasites in culture, 48 h, pooled, mean ± SD (n = 3) (Table 3)) [nM]	inhibition at 10 µM (MmIMPα/β heterodimer; read-out: % Inhibition of IMPα-NLS Interaction MmIMPα/β) [%]	IC50 (PfIMPα; range over PfIMPα, TgIMPα and MmΔIBBIMPα interactions, read-out: IC50 values of all three IMPα:NLS interactions) [nM]	IC50 (PfIMPα; single experiment (Figure 3), IMPα 5 nM, NLS 30 nM, read-out: IC50 PfIMPα:TGS1-NLS-GFP) [nM]	CC50 (HFF cells; MTT assay, 48 h, mean ± SD (n = 2), read-out: CC50 HFF cells) [nM]	cytotoxicity to HFF cells (HFF cells; at concentrations < c. 5 µM)	% Inhibition of IMPα-NLS Interaction MmIMPα/β (MmIMPα/β heterodimer) [%]	activity against cultured T. gondii (T. gondii tachyzoites)	activity against P. falciparum (P. falciparum)
CC(C)(C)c1ccc(S(=O)(=O)/C=C/C#N)cc1 [Bay 11-7085]	2000 nM and 1900 nM	12-16 fold	> 50	≥ 60	2700 ± 700	2000	8200 ± 700	–	–	–	–	–	–	–	–	–	–
O=C(/C=C/c1ccc(O)c(O)c1)OCCc1ccccc1 [CAPE, Caffeic acid phenethyl ester]	–	–	–	–	–	–	–	5	> 10000	14	–	–	–	–	–	–	–
CC(=O)OC[C@H]1O[C@@H]([S-])[C@H](OC(C)=O)[C@@H](OC(C)=O)[C@@H]1OC(C)=O.CCP(CC)CC.[Au+] [auranofin]	70 ± 10 nM	–	> 50	≥ 60	2300 ± 800	1900	–	–	–	–	60 to 80	80	5100	essentially absent	100	possess activity	possess activity
